Measured values reported in patent publication US20170000749A1, “Methods for Treating Cognitive Disorders Using Inhibitors of Histone Deacetylase” (Forum Pharmaceuticals, Inc., priority 2008, published 2017).
Where two headings read alike, the source gives them in different places.

Experiments:
[1] = test system: HDAC activity in primary mouse cortical cultures; assay: Whole-Cell Histone Deacetylase (HDAC) Inhibition Assay in Primary Mouse Cortical Cultures; format: cell-based; conditions: whole-cell (WC), mouse cortical neurons, read-out: HDAC Inhibition (IC50 μM) WC mouse cortical neurons
Procedure: Primary neocortical cultures are established through the dissection of the neocortex from E17 embryos harvested from time-pregnant Balb/C mice. Following dissection, the neocortical tissue specimens undergo digestion by incubation at 37° C. for 10 minutes in dissection medium (1×HBSS/10 mM HEPES/1 mM Sodium Pyruvate) supplemented with (0.25%) Trypsin and (0.1%) DNase I. Digested tissue is washed and resuspended in plating medium (NeuroBasal/10% HS/0.5 mM L-Glutamine (Invitrogen Corporation)) for trituration. Additional plating medium is added, and the contents are passed over a 70 um cell-strainer. The cell-density is quantified using a hemacytometer, and dilutions are made to allow for the plating of 50000 cells/well/100 uL in 96-well PDL-coated plates. Plates are incubated for 4-5 hours in 37° C./5% CO2-incubator, after which time the entire volume is exchanged to feeding medium (NeuroBasal/2% B-27 Serum-free supplement/0.5 mM L-Glutamine/1% Penicillin-Streptomycin (Invitrogen Corporation)). The cultures undergo two 50% fresh feeding medium exchanges at 3 days in vitro (DIV3), and again at DIV7.
Compounds for testing are resuspended in dimethyl sulphoxide (DMSO), and further diluted in DMSO for a ten-point dose-response curve, with appropriate controls. Each master plate is assayed in triplicate. […] Three DIV9 culture plates are leveled to 50 uL/well, onto which each has overlaid 50 uL/well of the diluted daughter plate. The plates are returned to the 37° C./5% CO2-incubator for 16-18 hours.
The next step of the assay involves the exposure of a HDAC colorimetric substrate, comprising an acetylated lysine side chain, to the compound-treated neuronal cultures. Based on the ability of the compound to inhibit HDAC activity in the neuronal cultures, the substrate is deacetylated by HDACs, and subsequently sensitized. […] Compound-incubated culture plates are again leveled to 50 uL/well and 2 uL/well of 7.5 mM BOC-Lys (Ac)-AMC substrate is added and thoroughly mixed. Plates are returned to the 37° C./5% CO2-incubator for 1 hour.
The final addition to the culture plates entails treatment with a Fluor de Lys™-based developer (BIOMOL Research Laboratories, Inc.) to produce a fluorophore, which is analyzed using a spectrophotometer. The developer solution (1×Fluor de Lys™/1% NP-40/1 uM TSA in HDAC Buffer Solution) is prepared, and 50 uL/well is added to each of the wells of the culture plates. […] The plates are returned to the 37° C./5% CO2-incubator for 10-15 minutes, after which time, they are removed and set in the dark at room temperature for 5-10 minutes.
Primary neocortical cultures were established through the dissection of the neocortex from E17 embryos harvested from time-pregnant Balb/C mice. Following dissection, the neocortical tissue specimens underwent digestion by incubation at 37° C. for 10 minutes in dissection medium (1×HBSS/10 mM HEPES/1 mM Sodium Pyruvate) supplemented with (0.25%) Trypsin and (0.1%) DNase I. Digested tissue was washed and resuspended in plating medium (NeuroBasal/10% HS/0.5 mM L-Glutamine (Invitrogen Corporation)) for trituration. Additional plating medium was added, and the contents passed over a 70 um cell-strainer. The cell-density was quantified using a hemacytometer, and dilutions made to allow for the plating of 50000 cells/well/100 uL in 96-well PDL-coated plates. Plates were incubated for 4-5 hours in 37° C./5% CO2-incubator, after which time the entire volume was exchanged to feeding medium (NeuroBasal/2% B-27 Serum-free supplement/0.5 mM L-Glutamine/l % Penicillin-Streptomycin (Invitrogen Corporation)). The cultures underwent two 50% fresh feeding medium exchanges at 3 days in vitro (DIV3), and again at DIV7.
Compounds for testing were resuspended in dimethyl sulphoxide (DMSO), and further diluted in DMSO for a ten-point dose-response curve, with appropriate controls. Each master plate was assayed in triplicate.

[2] = biological target: one or more of HDAC-1, HDAC-2, HDAC-3, HDAC-4, HDAC-5, HDAC-6, HDAC-7, HDAC-8, HDAC-9, HDAC-10 and HDAC-11; assay: Inhibition of Histone Deacetylase Enzymatic Activity (Boc-Lys(Ac)-AMC substrate, Fluor-de-Lys developer); format: biochemical; conditions: read-out: HDAC Inhibition (IC50 μM) HDAC Enzyme
Procedure: The following protocol is used to assay the compounds of the disclosure.
The mixture is pre-incubated for 5 minutes at room temperature. The reaction is started by bringing the temperature to 37° C. and adding 16 μl substrate. Total reaction volume is 50 μl.
In the Tables 8, 9 and 10, A≦0.05 μM; 0.05 μM<B≦0.1 μM; 0.1 μM<C≦1 μM; and 1 μM<D≦10 μM.

SMILES	IC50 ([1]; Table 10)	IC50 ([2]; Table 10)	other results
O=C(NO)c1cnc(N2CCCN(c3ncc(C(F)(F)F)cc3Cl)CC2)nc1	5 to 15 µM	< 0.05 µM	
O=C(NO)c1ccc(OCCN2C(=O)c3cc(F)ccc3Oc3ccccc32)cc1	< 1 µM	< 0.05 µM	
O=C(NO)c1ccc(OCCN2C(=O)c3ccccc3Oc3cc(Cl)ccc32)cc1	1 to 5 µM	< 0.05 µM	
O=C(NO)c1ccc(OCC(=O)N2Cc3ccccc3Oc3ccccc32)cc1	1 to 5 µM	0.1 to 1 µM	
O=C(NO)c1ccc(C2=Nc3ccccc3S(=O)(=O)c3ccccc32)cc1			IC50 ([1]; Table 8): 5 to 15 µM; IC50 ([2]; Table 8): 1 to 10 µM
O=C(NO)c1ccc(C2=Nc3ccccc3[S+]([O-])c3ccccc32)cc1 (stereo not drawn)			IC50 ([1]; Table 8): 1 to 5 µM; IC50 ([2]; Table 8): 0.1 to 1 µM
O=C(NO)c1ccc(C2=Nc3cncnc3N3CCc4cccc2c43)cc1			IC50 ([1]; Table 8): 5 to 15 µM; IC50 ([2]; Table 8): 0.1 to 1 µM
O=C(NO)c1cnc(N2C[C@@H]3C[C@H]2CN3c2cccc(S(F)(F)(F)(F)F)c2)nc1			IC50 ([1]; Table 9): 1 to 5 µM; IC50 ([2]; Table 9): < 0.05 µM
O=C(CCCCCCON=C1c2ccccc2CCc2ccccc21)NO	1 to 5 µM	0.1 to 1 µM	
O=C(CCCON=C1c2ccccc2CCc2ccccc21)NO	5 to 15 µM	0.1 to 1 µM	
O=C(NO)c1ccc(ON=C2c3ccccc3CCc3ccccc32)cc1	5 to 15 µM	0.1 to 1 µM	
O=C(CCCCON=C1c2ccccc2CCc2ccccc21)NO	5 to 15 µM	0.1 to 1 µM	
O=C(NO)c1cnc(N2CCN(C3c4ccccc4CCc4ccccc43)CC2)nc1	5 to 15 µM	0.1 to 1 µM	
O=C(NO)c1cnc(NCC2c3ccccc3CCc3ccccc32)nc1	5 to 15 µM	< 0.05 µM	
O=C(NO)c1cnc(NC2c3ccccc3C=Cc3ccccc32)nc1	< 1 µM	< 0.05 µM	
O=C(CCCCCCN1c2ccccc2Oc2ccccc2S1(=O)=O)NO	1 to 5 µM	0.1 to 1 µM	
O=C(CCCCCC(=O)NC1c2ccccc2C=Cc2ccccc21)NO	1 to 5 µM	0.1 to 1 µM	
O=C(NO)c1ccc(NC2c3ccccc3CCc3ccccc32)nc1	< 1 µM	< 0.05 µM	
O=C(NO)c1cccc(OCCN2C(=O)c3ccccc3Oc3ccccc32)c1	> 15 µM	0.1 to 1 µM	
CN1CCC2=C(C1)Oc1ccccc1N(CCOc1ccc(C(=O)NO)cc1)C2=O	< 1 µM	< 0.05 µM	
O=C(NO)c1ccc(OCCN2C(=O)CCOc3ccccc32)cc1	< 1 µM	< 0.05 µM	
O=C(NO)c1cnc(N2CC3CC2CO3)nc1 (stereo not drawn) [2-(2-oxa-5-azabicyclo[2.2.1]heptan-5-yl)-N-hydroxypyrimidine-5-carboxamide]			IC50 ([1]; Table 9): 1 to 5 µM; IC50 ([2]; Table 9): 0.1 to 1 µM
N#Cc1cccc(N2CC3CC2CN3c2ncc(C(=O)NO)cn2)c1 (stereo not drawn) [2-(5-(3-cyanophenyl)-2,5-diazabicyclo[2.2.1]heptan-2-yl)-N-hydroxypyrimidine-5-carboxamide]			IC50 ([1]; Table 9): < 1 µM; IC50 ([2]; Table 9): < 0.05 µM
O=C(NO)c1cnc(N2C[C@@H]3C[C@H]2CN3)nc1 [2-((1S,4S)-2,5-diazabicyclo[2.2.1]heptan-2-yl)-N-hydroxypyrimidine-5-carboxamide]			IC50 ([1]; Table 9): 5 to 15 µM; IC50 ([2]; Table 9): 0.1 to 1 µM
O=C(NO)c1cnc(N2C[C@@H]3C[C@H]2CN3c2ccc3c(c2)OC(F)(F)O3)nc1 [2-((1S,4S)-5-(2,2-difluorobenzo[d][1,3]dioxol-5-yl)-2,5-diazabicyclo[2.2.1]heptan-2-yl)-N-hydroxypyrimidine-5-carboxamide]			IC50 ([1]; Table 9): 1 to 5 µM; IC50 ([2]; Table 9): < 0.05 µM
O=C(NO)c1cnc(N2C[C@@H]3C[C@H]2CN3C(=O)C(c2ccccc2)c2ccccc2)nc1 [2-((1S,4S)-5-(2,2-diphenylacetyl)-2,5-diazabicyclo[2.2.1]heptan-2-yl)-N-hydroxypyrimidine-5-carboxamide]			IC50 ([1]; Table 9): 1 to 5 µM; IC50 ([2]; Table 9): 0.05 to 0.1 µM
O=C(NO)c1cnc(N2C[C@@H]3C[C@H]2CN3C(=O)C2CCCCC2)nc1 [2-((1S,4S)-5-(cyclohexanecarbonyl)-2,5-diazabicyclo[2.2.1]heptan-2-yl)-N-hydroxypyrimidine-5-carboxamide]			IC50 ([1]; Table 9): 1 to 5 µM
CN(C)CCOc1ccc2c(c1)C(c1ccc(C(=O)NO)cc1)=Nc1ccccc1O2 [(Z)-4-(2-(2-(dimethylamino)ethoxy)dibenzo[b,f][1,4]oxazepin-11-yl)-N-hydroxybenzamide]			IC50 ([1]; Table 8): > 15 µM
O=C(NO)c1ccc(N2C[C@@H]3C[C@H]2CN3c2nccc(C(F)(F)F)n2)cc1 [N-hydroxy-4-((1S,4S)-5-(4-(trifluoromethyl)pyrimidin-2-yl)-2,5-diazabicyclo[2.2.1]heptan-2-yl)benzamide]			IC50 ([1]; Table 9): 1 to 5 µM

Second part, led by results:

IC50 ([1]; Table 10)	IC50 ([2]; Table 10)	SMILES	other results
< 1 µM	0.05 to 0.1 µM	O=C(NO)c1ccc(OCCN2C(=O)c3ccccc3Oc3ccccc32)c(F)c1	
1 to 5 µM	0.1 to 1 µM	O=C(CCCCCCCON=C1c2ccccc2CCc2ccccc21)NO	
5 to 15 µM	0.1 to 1 µM	O=C(CCCCCON=C1c2ccccc2CCc2ccccc21)NO	
5 to 15 µM	< 0.05 µM	O=C(NO)c1ccc(CNC2c3ccccc3CCc3ccccc32)cc1	
5 to 15 µM	0.1 to 1 µM	O=C(NO)c1ccc(CON=C2c3ccccc3CCc3ccccc32)cc1	
5 to 15 µM	0.05 to 0.1 µM	O=C(/C=C/c1ccc(CNC2c3ccccc3CCc3ccccc32)cc1)NO	
5 to 15 µM	0.1 to 1 µM	O=C(CCCCCON=c1c2ccccc2ccc2ccccc12)NO	
1 to 5 µM	< 0.05 µM	CN(c1ncc(C(=O)NO)cn1)C1c2ccccc2CCc2ccccc21	
1 to 5 µM	0.1 to 1 µM	O=C(CCCCCCC(=O)NC1c2ccccc2C=Cc2ccccc21)NO	
< 1 µM	< 0.05 µM	O=C(NO)c1cnc(NC2c3ccccc3C=C(F)c3ccccc32)nc1 (stereo not drawn)	
> 15 µM	0.1 to 1 µM	O=C(NO)c1cnc(C2c3ccccc3C=Cc3ccccc32)nc1	
< 1 µM	< 0.05 µM	O=C(NO)c1ccc(OCCN2C(=O)c3ccccc3Oc3ccccc32)cc1	
1 to 5 µM	< 0.05 µM	O=C(NO)c1ccc(OCCN2CCOc3ccccc3C2=O)cc1	
< 1 µM	< 0.05 µM	O=C(NO)c1ccc(OCCN2C(=O)c3cccnc3Oc3ccccc32)cc1	
< 1 µM	< 0.05 µM	O=C(NO)c1ccc(OCCN2C(=O)c3ccncc3Oc3ccccc32)cc1	
1 to 5 µM	< 0.05 µM	O=C(/C=C/c1ccc(CN2C(=O)c3ccccc3Oc3ccccc32)cc1)NO	
5 to 15 µM	0.1 to 1 µM	O=C(NO)c1cnc(NC2c3ccccc3-c3ccccc32)nc1 [2-(9H-fluoren-9-ylamino)-N-hydroxypyrimidine-5-carboxamide]	
< 1 µM		O=C(NO)c1cnc(NC(c2ccccn2)c2ccccn2)nc1 [2-(dipyridin-2-ylmethylamino)-N-hydroxypyrimidine-5-carboxamide]	
